From PubChem BioAssay (NCI)
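All cell lines were grown in 96-well plates and treated with compound for 48 hours. The concentration for 50% growth inhibition is given as GI50. TGI is the concentration that stops growth completely.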

How the values were obtained:
Test in all cases: NCI tumour cell line growth inhibition, 48 h
CCRF-CEM leukemia = system: CCRF-CEM leukemia
RPMI-8226 leukemia = system: RPMI-8226 leukemia
UACC-257 melanoma = system: UACC-257 melanoma
RXF 393 renal = system: RXF 393 renal
HCT-116 colon = system: HCT-116 colon
UO-31 renal = system: UO-31 renal
BT-549 breast = system: BT-549 breast
SNB-19 CNS = system: SNB-19 CNS
HCC-2998 colon = system: HCC-2998 colon
HOP-62 NSCLC = system: HOP-62 NSCLC
U251 CNS = system: U251 CNS
LOX IMVI melanoma = system: LOX IMVI melanoma
NCI-H460 lung = system: NCI-H460 lung
SW-620 colon = system: SW-620 colon
SF-268 CNS = system: SF-268 CNS
ACHN renal = system: ACHN renal
HS 578T breast = system: HS 578T breast
CAKI-1 renal = system: CAKI-1 renal
MDA-MB-231 breast = system: MDA-MB-231 breast
SNB-75 CNS = system: SNB-75 CNS
OVCAR-4 ovarian = system: OVCAR-4 ovarian
HOP-92 NSCLC = system: HOP-92 NSCLC
NCI-H23 lung = system: NCI-H23 lung
SK-MEL-28 melanoma = system: SK-MEL-28 melanoma
PC-3 prostate = system: PC-3 prostate
EKVX NSCLC = system: EKVX NSCLC
SN12C renal = system: SN12C renal
MOLT-4 leukemia = system: MOLT-4 leukemia
IGROV1 ovarian = system: IGROV1 ovarian
SK-MEL-5 melanoma = system: SK-MEL-5 melanoma
SF-539 CNS = system: SF-539 CNS
MALME-3M melanoma = system: MALME-3M melanoma
M14 melanoma = system: M14 melanoma
MCF7 breast = system: MCF7 breast
SK-OV-3 ovarian = system: SK-OV-3 ovarian
HCT-15 colon = system: HCT-15 colon
NCI/ADR-RES ovarian = system: NCI/ADR-RES ovarian
T-47D breast = system: T-47D breast
UACC-62 melanoma = system: UACC-62 melanoma
OVCAR-5 ovarian = system: OVCAR-5 ovarian
COLO 205 colon = system: COLO 205 colon
NCI-H226 lung = system: NCI-H226 lung
MDA-MB-468 breast = system: MDA-MB-468 breast
SF-295 CNS = system: SF-295 CNS
A549 NSCLC = system: A549 NSCLC
K-562 leukemia = system: K-562 leukemia
TK-10 renal = system: TK-10 renal
A498 renal = system: A498 renal
NCI-H522 lung = system: NCI-H522 lung
OVCAR-8 ovarian = system: OVCAR-8 ovarian
MDA-MB-435 = system: MDA-MB-435
OVCAR-3 ovarian = system: OVCAR-3 ovarian
DU-145 prostate = system: DU-145 prostate
HT29 colon = system: HT29 colon
SK-MEL-2 melanoma = system: SK-MEL-2 melanoma
786-0 renal = system: 786-0 renal
HL-60(TB) leukemia = system: HL-60(TB) leukemia
KM12 colon = system: KM12 colon

Q: Which results are given for `Cc1ccccc1[C@H]1C(C(=O)c2ccc(Cl)cc2)C2(N[C@@H]1c1ccccc1)C(=O)Nc1ccc(Cl)cc12` (stereo partly specified)?
A: GI50 (CCRF-CEM leukemia): 9.04 µM; TGI (CCRF-CEM leukemia): 36.8 µM; GI50 (RPMI-8226 leukemia): 8.18 µM; TGI (RPMI-8226 leukemia): 30.2 µM; GI50 (UACC-257 melanoma): 5.82 µM; TGI (UACC-257 melanoma): 11.6 µM; GI50 (RXF 393 renal): 1.89 µM; TGI (RXF 393 renal): 7.25 µM; GI50 (HCT-116 colon): 5.04 µM; TGI (HCT-116 colon): 10.2 µM; GI50 (UO-31 renal): 4.48 µM; TGI (UO-31 renal): 9.28 µM; GI50 (BT-549 breast): 5.49 µM; TGI (BT-549 breast): 10.9 µM; GI50 (SNB-19 CNS): 6.07 µM; TGI (SNB-19 CNS): 11.6 µM; GI50 (HCC-2998 colon): 5.38 µM; TGI (HCC-2998 colon): 10.5 µM; GI50 (HOP-62 NSCLC): 5.88 µM; TGI (HOP-62 NSCLC): 11.3 µM; GI50 (U251 CNS): 5.85 µM; TGI (U251 CNS): 11.7 µM; GI50 (LOX IMVI melanoma): 5.45 µM; TGI (LOX IMVI melanoma): 10.5 µM; GI50 (NCI-H460 lung): 7.5 µM; TGI (NCI-H460 lung): 19.5 µM; GI50 (SW-620 colon): 6.97 µM; TGI (SW-620 colon): 20 µM; GI50 (SF-268 CNS): 4.74 µM; TGI (SF-268 CNS): 12.1 µM; GI50 (ACHN renal): 5.89 µM; TGI (ACHN renal): 11.1 µM; GI50 (HS 578T breast): 6.79 µM; TGI (HS 578T breast): 39.5 µM; GI50 (CAKI-1 renal): 4.23 µM; TGI (CAKI-1 renal): 9.47 µM; GI50 (MDA-MB-231 breast): 5.25 µM; TGI (MDA-MB-231 breast): 10.4 µM; GI50 (SNB-75 CNS): 4.37 µM; TGI (SNB-75 CNS): 12.6 µM; GI50 (OVCAR-4 ovarian): 5.74 µM; TGI (OVCAR-4 ovarian): 13.7 µM; GI50 (HOP-92 NSCLC): 4.07 µM; TGI (HOP-92 NSCLC): 9.11 µM; GI50 (NCI-H23 lung): 5.54 µM; TGI (NCI-H23 lung): 11.1 µM; GI50 (SK-MEL-28 melanoma): 6.26 µM; TGI (SK-MEL-28 melanoma): 11.8 µM; GI50 (PC-3 prostate): 4.02 µM; TGI (PC-3 prostate): 10.6 µM; GI50 (EKVX NSCLC): 4.15 µM; TGI (EKVX NSCLC): 8.85 µM; GI50 (SN12C renal): 4.96 µM; TGI (SN12C renal): 9.93 µM; GI50 (MOLT-4 leukemia): 4.93 µM; TGI (MOLT-4 leukemia): 16.9 µM; GI50 (IGROV1 ovarian): 4.58 µM; TGI (IGROV1 ovarian): 9.64 µM; GI50 (SK-MEL-5 melanoma): 6.09 µM; TGI (SK-MEL-5 melanoma): 11.7 µM; GI50 (SF-539 CNS): 6.2 µM; TGI (SF-539 CNS): 11.7 µM; GI50 (MALME-3M melanoma): 5.63 µM; TGI (MALME-3M melanoma): 10.9 µM; GI50 (M14 melanoma): 6.5 µM; TGI (M14 melanoma): 12.6 µM; GI50 (MCF7 breast): 4.47 µM; TGI (MCF7 breast): 9.78 µM; GI50 (SK-OV-3 ovarian): 5.88 µM; TGI (SK-OV-3 ovarian): 12.2 µM; GI50 (HCT-15 colon): 5.56 µM; TGI (HCT-15 colon): 11.1 µM; GI50 (NCI/ADR-RES ovarian): 5.64 µM; TGI (NCI/ADR-RES ovarian): 11.4 µM; GI50 (T-47D breast): 3.66 µM; TGI (T-47D breast): 8.83 µM; GI50 (UACC-62 melanoma): 4.6 µM; TGI (UACC-62 melanoma): 9.56 µM; GI50 (OVCAR-5 ovarian): 5.39 µM; TGI (OVCAR-5 ovarian): 10.6 µM; GI50 (COLO 205 colon): 5.56 µM; TGI (COLO 205 colon): 10.9 µM; GI50 (NCI-H226 lung): 5.47 µM; TGI (NCI-H226 lung): 11.2 µM; GI50 (MDA-MB-468 breast): 4.98 µM; TGI (MDA-MB-468 breast): 10.1 µM; GI50 (SF-295 CNS): 5.21 µM; TGI (SF-295 CNS): 10.2 µM; GI50 (A549 NSCLC): 5.63 µM; TGI (A549 NSCLC): 11.5 µM; GI50 (K-562 leukemia): 7.49 µM; TGI (K-562 leukemia): 36.4 µM; GI50 (TK-10 renal): 5.3 µM; TGI (TK-10 renal): 10.6 µM; GI50 (A498 renal): 6.28 µM; TGI (A498 renal): 12.5 µM; GI50 (NCI-H522 lung): 5.52 µM; TGI (NCI-H522 lung): 10.8 µM; GI50 (OVCAR-8 ovarian): 6.41 µM; TGI (OVCAR-8 ovarian): 14.5 µM; GI50 (MDA-MB-435): 6.04 µM; TGI (MDA-MB-435): 12.1 µM; GI50 (OVCAR-3 ovarian): 3.68 µM; TGI (OVCAR-3 ovarian): 9.82 µM; GI50 (DU-145 prostate): 6.11 µM; TGI (DU-145 prostate): 12.7 µM; GI50 (HT29 colon): 5.58 µM; TGI (HT29 colon): 11.4 µM; GI50 (SK-MEL-2 melanoma): 5.31 µM; TGI (SK-MEL-2 melanoma): 10.5 µM; GI50 (786-0 renal): 5.75 µM; TGI (786-0 renal): 11.1 µM; GI50 (HL-60(TB) leukemia): 9.94 µM; TGI (HL-60(TB) leukemia): 24.2 µM; GI50 (KM12 colon): 6.06 µM; TGI (KM12 colon): 13.5 µM
